The numbers were not newly measured in patent US8193152B2 (priority 2004, dated 2012), which cites them from elsewhere.

Read-outs that look alike come from different tables or passages of the source.

For series [1] the following is noted: in vivo.
The conditions of series [2]: in vivo. This is another data set of the same source.
The subject of another series is mycobacterial infection. Particulars: mouse, in vivo.
The subject of a further series is mycobacteria. The conditions noted are these: human, in vivo.
The next series deals with PIC. Particulars: guinea pig, in vivo.
A further series relates to Machupo. The conditions noted are these: rhesus monkey, in vivo.

For the compound `N[C@H](CCC(=O)N[C@@H](Cc1c[nH]c2ccccc12)C(=O)O)C(=O)O` [SCV-07, γ-D-glutamyl-L-tryptophan], the “Con-A-induced thymocyte and lymphocyte proliferation” value in the series on thymocyte and lymphocyte is given as “increases”. In the series with spleen lymphocytes, the “Con-A-induced interleukin-2 (IL-2) production” value is reported as “increases” and the IL-2 receptor expression result is “increases”. In addition, the “expression of Thy-1.2” value in the series on bone marrow cells is listed as “stimulates expression”. For the same compound, in [1], the immunostimulatory effect entry is listed as “strong immunostimulatory effect”. For the same compound, the immunostimulatory effect entry in series [2] is listed as “strong immunostimulatory effect”. Moreover, in the series on mycobacterial infection, the “IFNγ production by Con-A-induced spleen cells” value is listed as “higher”, the “IL-4 production by Con-A-induced spleen cells” value is “lower”, the “Phagocytic activity by peritoneal macrophages” value is “markedly increased” and the lung damage entry was “significantly decrease”. Also, in the series on mycobacteria, the “cavity healing and symptoms of tuberculosis” value is “positive effect”; the drug-induced adverse effects result is reported as “without any drug-induced adverse effects”; the “incidence of mycobacteria-negative sputum cultures” value is “increased”.
For the compound IFNα, in the series on PIC, the mortality result is recorded as “No significant improvement in mortality”.
Take `NC(=O)c1ncn([C@@H]2O[C@H](CO)[C@@H](O)[C@H]2O)n1` [ribavirin, Ribavirin, reference compound]: in the series on PIC, the time to death result is on record as “prolonged”.
As for poly (ICLC), in the series with Machupo, the “Overall mortality and time to death” value is listed as “not improved”; the viremia result is listed as “significantly higher”.
